Results reported in US9999622B2, “Pyrazolothiazole compound and medicine comprising same” (NIPPON SHINYAKU CO., LTD., priority 2014, dated 2018).
Counter-ions that a name gives are not always drawn.

Experiments:
Type in all cases: biochemical
[1] = target: T1, JAK1 (Homo sapiens, UniProt P23458); assay: JAK tyrosine kinase inhibitory activity in the presence of 1 mM ATP (ELISA), JAK1
T1 construct: purchased Carna Biosciences, Inc
Summary of the method: (§1)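 Kinase reactions ran on streptavidin-coated plates in 15 mM Tris-HCl pH 7.5, 0.01% Tween-20, 1 mM DTT, 30 °C for 1 h. Enzyme was prediluted to 7.5 nM (JAK1) or 0.75 nM (JAK2, JAK3) before addition. Phosphotyrosine was detected with HRP anti-pTyr antibody and TMB at A450.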

[2] = target: T2, JAK2 (Homo sapiens, UniProt O60674); assay: JAK tyrosine kinase inhibitory activity in the presence of 1 mM ATP (ELISA), JAK2
T2 construct: purchased Carna Biosciences, Inc
T2 sequence (O60674 whole entry): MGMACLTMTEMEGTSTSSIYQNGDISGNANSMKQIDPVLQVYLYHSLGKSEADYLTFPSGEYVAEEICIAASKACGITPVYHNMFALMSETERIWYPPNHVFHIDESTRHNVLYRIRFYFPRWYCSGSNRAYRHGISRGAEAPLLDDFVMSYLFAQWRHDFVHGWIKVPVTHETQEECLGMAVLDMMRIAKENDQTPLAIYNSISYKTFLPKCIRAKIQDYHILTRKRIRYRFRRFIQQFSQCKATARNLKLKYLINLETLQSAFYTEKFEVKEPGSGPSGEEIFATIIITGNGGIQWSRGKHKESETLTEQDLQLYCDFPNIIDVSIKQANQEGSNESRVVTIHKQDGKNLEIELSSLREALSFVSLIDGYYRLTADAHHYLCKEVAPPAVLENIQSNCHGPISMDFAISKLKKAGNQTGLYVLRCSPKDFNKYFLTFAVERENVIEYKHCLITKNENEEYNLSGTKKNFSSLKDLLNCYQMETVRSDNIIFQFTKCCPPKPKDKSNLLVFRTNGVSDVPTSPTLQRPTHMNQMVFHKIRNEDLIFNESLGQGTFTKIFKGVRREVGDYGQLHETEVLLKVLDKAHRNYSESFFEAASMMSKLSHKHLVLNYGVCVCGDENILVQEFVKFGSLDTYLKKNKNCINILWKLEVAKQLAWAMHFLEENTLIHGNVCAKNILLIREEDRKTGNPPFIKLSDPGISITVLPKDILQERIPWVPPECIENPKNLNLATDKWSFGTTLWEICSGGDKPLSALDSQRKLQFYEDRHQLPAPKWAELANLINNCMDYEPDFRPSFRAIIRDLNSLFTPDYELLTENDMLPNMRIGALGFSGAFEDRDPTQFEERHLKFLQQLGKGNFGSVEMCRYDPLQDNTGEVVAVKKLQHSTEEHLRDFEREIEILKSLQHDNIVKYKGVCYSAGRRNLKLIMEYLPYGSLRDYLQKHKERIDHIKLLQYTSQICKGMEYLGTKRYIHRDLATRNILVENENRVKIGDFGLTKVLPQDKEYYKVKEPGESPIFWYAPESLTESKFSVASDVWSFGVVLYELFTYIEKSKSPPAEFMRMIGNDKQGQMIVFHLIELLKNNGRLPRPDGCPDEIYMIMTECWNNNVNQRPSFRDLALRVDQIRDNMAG
Summary of the method: as §1

[3] = target: T3, JAK3 (Homo sapiens, UniProt P52333); assay: JAK tyrosine kinase inhibitory activity in the presence of 1 mM ATP (ELISA), JAK3
T3 construct: purchased Carna Biosciences, Inc
T3 sequence (P52333 1-1124): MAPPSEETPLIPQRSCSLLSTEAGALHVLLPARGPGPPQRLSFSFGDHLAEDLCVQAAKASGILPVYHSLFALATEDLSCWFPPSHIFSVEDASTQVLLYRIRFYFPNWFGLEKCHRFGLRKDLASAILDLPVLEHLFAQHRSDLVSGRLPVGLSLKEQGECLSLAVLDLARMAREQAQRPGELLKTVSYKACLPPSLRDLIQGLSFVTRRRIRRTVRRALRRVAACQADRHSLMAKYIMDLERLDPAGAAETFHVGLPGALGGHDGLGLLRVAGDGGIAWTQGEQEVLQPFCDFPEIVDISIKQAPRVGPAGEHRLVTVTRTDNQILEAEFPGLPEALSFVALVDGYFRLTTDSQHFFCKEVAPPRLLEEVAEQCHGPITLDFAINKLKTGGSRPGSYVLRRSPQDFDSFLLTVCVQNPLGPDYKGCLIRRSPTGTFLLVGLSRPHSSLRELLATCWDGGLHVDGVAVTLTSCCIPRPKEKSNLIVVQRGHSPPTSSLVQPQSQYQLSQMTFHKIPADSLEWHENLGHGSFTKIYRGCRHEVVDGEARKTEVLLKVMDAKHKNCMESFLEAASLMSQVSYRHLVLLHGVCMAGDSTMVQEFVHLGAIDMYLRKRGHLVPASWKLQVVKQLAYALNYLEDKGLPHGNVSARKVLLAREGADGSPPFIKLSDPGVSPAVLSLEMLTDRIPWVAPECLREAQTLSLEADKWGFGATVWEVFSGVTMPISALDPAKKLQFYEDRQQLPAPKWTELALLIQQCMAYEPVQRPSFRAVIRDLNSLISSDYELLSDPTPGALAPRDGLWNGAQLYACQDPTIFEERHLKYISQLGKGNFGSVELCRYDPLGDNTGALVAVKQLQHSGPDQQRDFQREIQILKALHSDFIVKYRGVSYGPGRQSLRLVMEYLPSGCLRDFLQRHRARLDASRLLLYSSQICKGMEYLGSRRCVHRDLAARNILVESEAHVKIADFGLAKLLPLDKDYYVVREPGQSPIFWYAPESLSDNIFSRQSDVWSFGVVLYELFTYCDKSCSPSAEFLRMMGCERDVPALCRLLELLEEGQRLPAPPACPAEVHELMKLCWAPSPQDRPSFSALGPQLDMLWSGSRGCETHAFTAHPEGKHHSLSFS
Summary of the method: as §1

T1 sequence (P23458 whole entry): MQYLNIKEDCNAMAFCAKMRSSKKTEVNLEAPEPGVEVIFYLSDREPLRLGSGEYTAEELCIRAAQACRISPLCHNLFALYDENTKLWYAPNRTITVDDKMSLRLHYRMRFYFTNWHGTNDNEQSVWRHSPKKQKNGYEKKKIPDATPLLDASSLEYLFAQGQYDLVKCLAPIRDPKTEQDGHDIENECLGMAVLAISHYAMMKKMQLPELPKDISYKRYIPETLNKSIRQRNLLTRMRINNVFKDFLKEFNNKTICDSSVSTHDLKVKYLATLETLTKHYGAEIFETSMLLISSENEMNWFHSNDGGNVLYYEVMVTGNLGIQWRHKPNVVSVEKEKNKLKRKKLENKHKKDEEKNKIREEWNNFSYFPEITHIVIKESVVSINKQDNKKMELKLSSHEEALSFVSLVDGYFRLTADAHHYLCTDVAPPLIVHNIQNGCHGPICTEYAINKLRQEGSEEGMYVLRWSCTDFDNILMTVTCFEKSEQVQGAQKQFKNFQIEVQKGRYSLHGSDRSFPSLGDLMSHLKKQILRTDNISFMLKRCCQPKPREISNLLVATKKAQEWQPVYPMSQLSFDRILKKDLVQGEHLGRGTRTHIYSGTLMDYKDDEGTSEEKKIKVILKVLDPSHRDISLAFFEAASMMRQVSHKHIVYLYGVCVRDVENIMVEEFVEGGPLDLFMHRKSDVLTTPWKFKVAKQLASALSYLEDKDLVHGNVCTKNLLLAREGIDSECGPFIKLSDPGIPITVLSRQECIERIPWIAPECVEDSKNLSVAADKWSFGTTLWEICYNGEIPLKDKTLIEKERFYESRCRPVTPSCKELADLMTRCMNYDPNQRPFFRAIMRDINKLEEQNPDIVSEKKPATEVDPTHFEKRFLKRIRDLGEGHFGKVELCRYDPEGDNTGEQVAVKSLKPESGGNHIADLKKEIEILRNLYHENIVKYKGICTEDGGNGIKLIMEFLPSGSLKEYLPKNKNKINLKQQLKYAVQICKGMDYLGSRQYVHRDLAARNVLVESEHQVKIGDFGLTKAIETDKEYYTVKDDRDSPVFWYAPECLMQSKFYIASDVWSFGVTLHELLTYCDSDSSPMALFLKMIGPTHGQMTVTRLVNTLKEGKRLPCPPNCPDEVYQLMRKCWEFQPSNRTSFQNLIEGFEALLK

COC(=O)NC1CCN(C(=O)c2cc(NC(C3CC3)C3CC3)nc(-c3cnn4ccsc34)n2)CC1 [Example 140, Methyl [1-({6-[(dicyclopropylmethyl)amino]-2-(pyrazolo[5,1-b][1,3]thiazol-7-yl)pyrimidin-4-yl}carbonyl)piperidin-4-yl]carbamate] was tested, and the IC50 [1] was 280 nM, the IC50 [2] was 770 nM and the IC50 [3] was 340 nM.

With COC(=O)NC1CCN(C(=O)c2cc(Oc3ccccc3)nc(-c3cnn4ccsc34)n2)CC1 [Example 141, Methyl (1-{[6-phenoxy-2-(pyrazolo[5,1-b][1,3]thiazol-7-yl)pyrimidin-4-yl]carbonyl}piperidin-4-yl)carbamate] the IC50 [1] was 1100 nM, the IC50 [2] was > 10000 nM and the IC50 [3] was > 10000 nM.

In the case of COC(=O)NC1CCN(C(=O)c2cc(NC3CCN(C(=O)OC(C)(C)C)CC3)nc(-c3cnn4ccsc34)n2)CC1 [Example 142, tert-Butyl 4-{[6-({4-[(methoxycarbonyl)amino]piperidin-1-yl}carbonyl)-2-(pyrazolo[5,1-b][1,3]thiazol-7-yl)pyrimidin-4-yl]amino}piperidine-1-carboxylate], the IC50 [1] is reported as 1200 nM, the IC50 [2] is reported as > 10000 nM and the IC50 [3] is reported as > 10000 nM.

For COC(=O)NC1CCN(C(=O)c2cc(NC3CCNCC3)nc(-c3cnn4ccsc34)n2)CC1 [Example 143, Methyl (1-{[6-(piperidin-4-ylamino)-2-(pyrazolo[5,1-b][1,3]thiazol-7-yl)pyrimidin-4-yl]carbonyl}piperidin-4 yl)carbamate dihydrochloride], the IC50 [1] was 1900 nM, the IC50 [2] was > 10000 nM and the IC50 [3] was > 10000 nM.

For COC(=O)NC1CCN(C(=O)c2cc(NC3(C#N)CC3)nc(-c3cnn4ccsc34)n2)CC1 [Example 144, Methyl [1-({6-[(1-cyanocyclopropyl)amino]-2-(pyrazolo[5,1-b][1,3]thiazol-7-yl)pyrimidin-4-yl}carbonyl)piperidin-4-yl]carbamate], the IC50 [1] was 480 nM, the IC50 [2] was > 10000 nM and the IC50 [3] was 6600 nM.

COC(=O)NC1CCN(C(=O)c2nc(-c3cnn4ccsc34)nc(N[C@@H](C)C3CC3)c2OC)CC1 [Example 145, Methyl (1-{[6-{[(1S)-1-cyclopropylethyl]amino} 5 methoxy-2-(pyrazolo[5,1-b][1,3]thiazol-7-yl)pyrimidin-4-yl]carbonyl}piperidin-4-yl)carbamate] gave an IC50 [1] of 270 nM, an IC50 [2] of 1200 nM and an IC50 [3] of 1400 nM.

COC(=O)NC1CCN(C(=O)c2nc(-c3cnn4ccsc34)nc(N[C@H](C)C(C)(C)C)c2OC)CC1 [Example 146, Methyl (1-{[6-{[(2R)-3,3-dimethylbutan-2-yl]amino}-5-methoxy-2-(pyrazolo[5,1-b][1,3]thiazol-7-yl)pyrimidin-4-yl]carbonyl}piperidin-4-yl)carbamate] showed an IC50 [1] of 270 nM, an IC50 [2] of 1600 nM and an IC50 [3] of 1400 nM.

With COC(=O)NC1CCN(C(=O)c2cc(N[C@H]3CCN(C(=O)OC(C)(C)C)C3)nc(-c3cnn4ccsc34)n2)CC1 [Example 147, tert-Butyl (3S)-3-{[6 {(4 [(methoxycarbonyl)amino]piperidin-1-yl}carbonyl)-2-(pyrazolo[5,1-b][1,3]thiazol-7-yl)pyrimidin-4-yl]amino}pyrrolidine-1-carboxylate] the IC50 [1] was 2600 nM, the IC50 [2] was > 10000 nM and the IC50 [3] was > 10000 nM.

In the case of COC(=O)NC1CCN(C(=O)c2cc(N[C@@H]3CCN(C(=O)OC(C)(C)C)C3)nc(-c3cnn4ccsc34)n2)CC1 [Example 148, tert-Butyl (3R)-3-{[6-({4-[(methoxycarbonyl)amino]piperidin-1-yl}carbonyl)-2-(pyrazolo[5,1-b][1,3]thiazol-7-yl)pyrimidin-4-yl]amino}pyrrolidine-1-carboxylate], the IC50 [1] is reported as 1600 nM, the IC50 [2] is reported as > 10000 nM and the IC50 [3] is reported as > 10000 nM.

COC(=O)NC1CCN(C(=O)c2cc(N[C@H]3CCNC3)nc(-c3cnn4ccsc34)n2)CC1 [Example 149, Methyl [1-({2-(pyrazolo[5,1-b][1,3]thiazol-7-yl)-6-[(3S)-pyrrolidin-3-ylamino]pyrimidin-4-yl}carbonyl)piperidin-4-yl]carbamate dihydrochloride] was tested, and the IC50 [1] was 1000 nM, the IC50 [2] was > 10000 nM and the IC50 [3] was > 10000 nM.

In the case of COC(=O)NC1CCN(C(=O)c2cc(N[C@@H]3CCNC3)nc(-c3cnn4ccsc34)n2)CC1 [Example 150, Methyl [1-({2-(pyrazolo[5,1-b][1,3]thiazol-7-yl)-6-[(3R)-pyrrolidin-3-ylamino]pyrimidin-4-yl}carbonyl)piperidin-4-yl]carbamate dihydrochloride], the IC50 [1] is reported as 5200 nM, the IC50 [2] is reported as > 10000 nM and the IC50 [3] is reported as > 10000 nM.

With COC(=O)NC1CCN(C(=O)c2cc(N[C@@H]3CCN(C)C3)nc(-c3cnn4ccsc34)n2)CC1 [Example 151, Methyl (1-{[6-{[(3R)-1-methylpyrrolidin-3-yl]amino}-2-(pyrazolo[5,1-b][1,3]thiazol-7-yl)pyrimidin-4-yl]carbonyl}piperidin-4-yl)carbamate] the IC50 [1] was 2600 nM, the IC50 [2] was > 10000 nM and the IC50 [3] was > 10000 nM.

COC(=O)NC1CCN(C(=O)c2cc(N[C@@H]3CCN(C(C)=O)C3)nc(-c3cnn4ccsc34)n2)CC1 [Example 152, Methyl (1-{[6-{[(3R)-1-acetylpyrrolidin-3-yl]amino}-2-(pyrazolo[5,1-b][1,3]thiazol-7-yl)pyrimidin-4-yl]carbonyl}piperidin-4-yl)carbamate] was tested, and the IC50 [1] was 2300 nM, the IC50 [2] was > 10000 nM and the IC50 [3] was > 10000 nM.

CC[C@H](C)Nc1nc(-c2cnn3ccsc23)nc(C(=O)N2CCC(NC(=O)OC)CC2)c1OC [Example 153, Methyl [1-({6-[(2S)-butan-2-ylamino]-5-methoxy-2-(pyrazolo[5,1-b][1,3]thiazol-7-yl)pyrimidin 4 yl}carbonyl)piperidin-4-yl]carbamate] showed an IC50 [1] of 210 nM, an IC50 [2] of 7200 nM and an IC50 [3] of 9000 nM.

Compound CCOc1c(N[C@@H](C)C2CC2)nc(-c2cnn3ccsc23)nc1C(=O)N1CCC(NC(=O)OC)CC1 [Example 154, Methyl (1-{[6-{[(1S)-1-cyclopropylethyl]amino}-5-ethoxy-2-(pyrazolo[5,1-b][1,3]thiazol-7-yl)pyrimidin-4-yl]carbonyl}piperidin-4-yl)carbamate] has an IC50 [1] of 180 nM, an IC50 [2] of 5300 nM and an IC50 [3] of 3100 nM.

CCOc1c(N[C@H](C)C(C)(C)C)nc(-c2cnn3ccsc23)nc1C(=O)N1CCC(NC(=O)OC)CC1 [Example 155, Methyl (1-{[6-{[(2R)-3,3-dimethylbutan-2-yl]amino}-5-ethoxy-2-(pyrazolo[5,1 b][1,3]thiazol 7-yl)pyrimidin-4-yl]carbonyl}piperidin-4-yl)carbamate] gave an IC50 [1] of 24 nM, an IC50 [2] of 4600 nM and an IC50 [3] of 1400 nM.

CCC1CCCCN1c1cc(C(=O)N2CCC(NC(=O)C3CC3)CC2)nc(-c2cnn3ccsc23)n1 (stereo not drawn) [Example 157, N-(1-{[6-(2-ethylpiperidin-1-yl)-2-(pyrazolo[5,1-b][1,3]thiazol-7-yl)pyrimidin-4-yl]carbonyl}piperidin-4-yl)cyclopropanecarboxamide] was tested, and the IC50 [1] was 310 nM, the IC50 [2] was 5100 nM and the IC50 [3] was > 10000 nM.

With COC(=O)NC1CCN(C(=O)c2cc(NCC(F)(F)F)nc(-c3cnn4ccsc34)n2)CC1 [Example 158, Methyl (1-2-(pyrazolo[5,1-b][1,3]thiazol-7-yl)-6-[(2,2,2-trifluoroethyl)amino]pyrimidine-4-carbonylpiperidin-4-yl)carbamate] the IC50 [1] was 1300 nM, the IC50 [2] was > 10000 nM and the IC50 [3] was > 10000 nM.

With O=C(NC1CCN(C(=O)c2cc(NCc3cccs3)nc(-c3cnn4ccsc34)n2)CC1)C1CC1 [Example 159, N-1-[2-(pyrazolo[5,1-b][1,3]thiazol-7-yl)-6-[(thiophen-2-yl)methyl]aminopyrimidine-4-carbonyl]piperidin-4-ylcyclopropanecarboxamide] the IC50 [1] was 2600 nM, the IC50 [2] was > 10000 nM and the IC50 [3] was > 10000 nM.

In the case of O=C(NC1CCN(C(=O)c2cc(NCc3ccco3)nc(-c3cnn4ccsc34)n2)CC1)C1CC1 [Example 160, N-1-[6-[(furan-2-yl)methyl]amino-2-(pyrazolo[5,1-b][1,3]thiazol-7-yl)pyrimidine-4-carbonyl]piperidin-4-ylcyclopropanecarboxamide], the IC50 [1] is reported as 980 nM, the IC50 [2] is reported as > 10000 nM and the IC50 [3] is reported as > 10000 nM.
